Measurements published in publication PMC3004780 (Journal of nuclear medicine : official publication, Society …, 2009).

Legend:
[1] = tested on: Klebsiella pneumoniae lung inflammation model; type: in vivo, mouse
[2] = tested on: Klebsiella pneumoniae lung inflammation model; type: in vivo, mouse; settings: excised tissue, 18 hr post injection, control n=4, Klebsiella-infected n=6 mice
[3] = mouse, in vivo
neutrophil FPR = settings: read-out: Kd for neutrophil FPR; unaltered parent peptide, antagonist; cited from earlier work

Substance	Average lung SUV, control mice ([1]; PET 18 hr post injection, n=4, mean ± SD)	Average lung SUV, Klebsiella infected mice ([1]; PET 18 hr post injection, n=6, mean ± SD)	Ligand half-life in the control lung ([1]; mouse, in vivo)	Ligand half-life in the infected lung ([1]; mouse, in vivo)	Mean ratio of radioactivity in infected to control lungs [2]	Blood half-life [3]	Blood clearance (biological) half-life ([3]; iv)	Kd (neutrophil FPR)
cFLFLF-PEG76-DOTA-^64Cu [cFLFLFK-PEG-^64Cu]	0.028 ± 0.003	0.142 ± 0.054	4.8 ± 0.7 h	10.3 ± 2.9 h	3.8	approximately 1 hour	55 ± 8 min	
N-cinnamoyl-F-(D)L-F-(D)L-F [cFLFLF]								2 nM
